The text below walks through data of article PMC9227781, “Inhibitors of O-Acetylserine Sulfhydrylase with a Cyclopropane-Carboxylic Acid Scaffold Are Effective Colistin Adjuvants in Gram Negative Bacteria” (Pharmaceuticals, 2022).

Assay [1] deals with S. Typhimurium ATCC14028. The assay is described as follows: MIC by broth microdilution, S. Typhimurium. In kind it is cell-based, Salmonella enterica serovar Typhimurium. The conditions noted are these: Salmonella enterica; compound alone, MHB, 24 h at 37 °C; read-out: MIC (μg/mL) S. Typhimurium ATCC14028. In short, it runs like this: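 CLSI-based broth microdilution in MHB, inoculum 5 × 10^5 CFU/mL from log-phase cultures, compounds tested at 256–0.5 µg/mL final, 24 h at 37 °C static aerobic. MIC read by unaided eye with mirror plus OD620 for growth inhibition; mean ± SD of three experiments in triplicate.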
Background: Dilution methods test growth across graded concentrations, often in twofold steps.

The test system of assay [2] is S. Typhimurium ATCC14028. The experiment in a line: Checkerboard assay with colistin, S. Typhimurium. In kind it is cell-based, Salmonella enterica serovar Typhimurium. The conditions noted are these: for MIC: Salmonella enterica, colistin in combination with compound at 8 μg/mL; for fold reduction with respect to the MIC of colistin alone, S. Typhimurium: compound at 8 µg/mL. The method, then: (§1) Antimicrobial activity of associations between the different compounds and colistin (Sigma-Aldrich, St. Louis, MO, USA, lot n. 049M-4836 V) was tested with checkerboard assay with minor modifications, as mentioned in the previous work. For each assay, three experiments with three replicates each were assessed. For each compound tested concentration, 96-wells microtiter U-plates were prepared with twofold serial dilutions of colistin in MHB starting from the MIC value (µg/mL) for ten consecutive dilutions in 50 µL of broth. In each well of the same replicate, 1 µL of each compound in DMSO was added at a fixed concentration, 100 times higher than the final desired concentration (3.2; 1.6; 0.8 mg/mL). Subsequently, 49 µL of the bacterial suspension at a concentration of 10^6 CFU/mL, adjusted spectrophotometrically as reported above, was added to each well, reaching the final bacterial concentration of 5 × 10^5 CFU/mL. Growth and sterility controls were performed for each experiment and for each replicate. Finally, the plates were incubated at 37 °C in aerobic atmosphere for 24 h. After incubation, plates were read by unaided eye with a microtiter reading mirror and then the OD of each well of the plates was measured spectrophotometrically at 620 nm. MIC values were calculated as the arithmetic mean ± SD of the unaided eye reading and the inhibition of growth for each tested dilution was calculated from the OD values (mean ± SD).
(§2) To evaluate the antimicrobial effect of the two molecules in association, the FIC index was calculated as follows. The MICs of each of the two molecules tested individually and in combination with each other were evaluated and the results have been included in the following formula as reported by Meletiadis et al.: FIC=MICA in combination/MICA+MICB in combination/MICB where MICA was the MIC of the compound UPAR415 and MICA in combination was the MIC of UPAR415 in combination with colistin. MICB was the MIC of colistin and MICB in combination was the MIC of colistin in combination with UPAR415. From the results of the FIC index formula, the antimicrobial activity in combination of the two molecules can be considered: synergistic, additive, indifferent of antagonistic. If the FIC index is ≤ 0.5, the association is synergic; additive if FIC is between 0.5 and 1; indifferent if FIC is between 1 and 4; and antagonistic if FIC is ≥4 [50].
(§3) Statistical analysis of checkerboard results in comparison with MIC values of colistin alone was performed using the Analysis of Variance (ANOVA) test.

The next assay has as its system E. coli ATCC 25922. The experiment in a line: Checkerboard assay with colistin, E. coli. The conditions noted are these: for MIC Colistin E. coli: colistin in combination with compound at 8 μg/mL; for FIC Index E. coli / FIC Index interpretation E. coli: compound at 8 μg/mL with colistin; for fold reduction of MIC of colistin, E. coli: compound at 8 µg/mL, versus colistin alone. In kind it is cell-based, Escherichia coli. Here is the method: as §1, §2, §3

The subject of a further assay is K. pneumoniae ATCC13883. The assay is described as follows: Checkerboard assay with colistin, K. pneumoniae. The following applies: for reduction of the MIC of colistin, K. pneumoniae: association of colistin with compound; for MIC Colistin K. pneumoniae: colistin in combination with compound at 8 μg/mL. In kind it is cell-based, Klebsiella pneumoniae. Here is the method:
as §1, §2, §3

Where [3] appears, read: compound at 8 μg/mL with colistin.

In the case of `CCOC(=O)C1(Cc2ccc(C)cc2)CC1c1cccc(N2CC(C)OC(C)C2)c1` (stereo not drawn) [Compound 12h, trans-ethyl 2-(3-(2,6-dimethylmorpholino)phenyl)-1-(4-methylbenzyl)cyclopropanecarboxylate], the MIC with S. Typhimurium ATCC14028 [1] is > 512 µg/mL. Besides, in the assay on S. Typhimurium ATCC14028 [2], the MIC is 0.101 ± 0.07 µg/mL and the “fold reduction with respect to the MIC of colistin alone, S. Typhimurium” value is recorded as 5 fold. In addition, the “MIC Colistin” value with S. Typhimurium ATCC14028 [2] (colistin in combination with 12h at 32 μg/mL, S. Typhimurium ATCC14028 (wild type)) came to 0.125 ± 0.08 µg/mL. In addition, in the assay on S. Typhimurium ATCC14028 [2] (setting [3]), the “FIC Index S. Typhimurium” value worked out at 0.21 and the “FIC Index interpretation S. Typhimurium” value is given as “synergy (If the FIC index is ≤ 0.5, the association is synergic)”. Further, in the assay on E. coli ATCC 25922, the “MIC Colistin E. coli” value was found to be 0.122 ± 0.08 µg/mL; the “FIC Index E. coli” value turned out to be 0.33; the “FIC Index interpretation E. coli” value is reported as “synergy (If the FIC index is ≤ 0.5, the association is synergic)”; the “fold reduction of MIC of colistin, E. coli” value is on record as 2 fold. Besides, in the assay on K. pneumoniae ATCC13883, the “reduction of the MIC of colistin, K. pneumoniae” value was “has not led to a reduction of the MIC of colistin” and the “MIC Colistin K. pneumoniae” value was determined as 8.00 ± 0.0 µg/mL. In the assay on K. pneumoniae ATCC13883 (setting [3]), the “FIC Index K. pneumoniae” value is 2.01; the “FIC Index interpretation K. pneumoniae” value is “indifference (indifferent if FIC is between 1 and 4)”.

On to `Cc1ccc(CC2(C(=O)O)CC2c2cccc(N3CC(C)OC(C)C3)c2)cc1` (stereo not drawn) [Compound 13h, trans-2-(3-(2,6-dimethylmorpholino)phenyl)-1-(4-methylbenzyl)cyclopropanecarboxylic acid], for which the MIC in the assay with S. Typhimurium ATCC14028 [1] was > 512 µg/mL. For the same compound, in the assay with S. Typhimurium ATCC14028 [2], the MIC amounted to 0.468 ± 0.01 µg/mL and the “fold reduction with respect to the MIC of colistin alone, S. Typhimurium” value was found to be 2 fold. Also, in the assay on S. Typhimurium ATCC14028 [2] (setting [3]), the “FIC Index S. Typhimurium” value is 0.90. Besides, in the assay on E. coli ATCC 25922, the “MIC Colistin E. coli” value was 0.18 ± 0.06 µg/mL; the “FIC Index E. coli” value stood at 0.48; the “FIC Index interpretation E. coli” value is “synergy (If the FIC index is ≤ 0.5, the association is synergic)”; the “fold reduction of MIC of colistin, E. coli” value turned out to be 3 fold. In the assay on K. pneumoniae ATCC13883, the “reduction of the MIC of colistin, K. pneumoniae” value is “has not led to a reduction of the MIC of colistin” and the “MIC Colistin K. pneumoniae” value was 3.33 ± 1.0 µg/mL. For the same compound, the “FIC Index K. pneumoniae” value in the assay with K. pneumoniae ATCC13883 (setting [3]) was 0.85. Besides, the “effect on MIC of colistin, K. pneumoniae” value in the assay with K. pneumoniae ATCC13883 (compound at 32 and 16 µg/mL) is “only a slight effect”.
